Assay results taken from ChEMBL document CHEMBL5291721, “A preclinical secondary pharmacology resource illuminates target-adverse drug reaction associations of marketed drugs” (Nat Commun, 2023).

How the values were obtained:
[1] = target: T1, Adenosine receptor A3 (Homo sapiens, UniProt P0DMS8)
T1 sequence (P0DMS8 whole entry): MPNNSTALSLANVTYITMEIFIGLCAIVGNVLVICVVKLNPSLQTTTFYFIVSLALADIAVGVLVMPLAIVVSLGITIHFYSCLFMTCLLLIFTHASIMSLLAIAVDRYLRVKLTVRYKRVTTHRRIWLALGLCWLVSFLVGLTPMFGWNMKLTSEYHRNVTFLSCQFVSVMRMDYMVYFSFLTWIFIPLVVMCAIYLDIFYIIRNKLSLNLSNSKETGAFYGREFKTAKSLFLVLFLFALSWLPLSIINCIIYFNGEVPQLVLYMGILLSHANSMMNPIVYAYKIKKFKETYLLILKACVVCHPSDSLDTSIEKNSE

[2] = target: T2, Alpha-1A adrenergic receptor (Homo sapiens, UniProt P35348); type: functional, cell-based
T2 sequence (P35348 whole entry): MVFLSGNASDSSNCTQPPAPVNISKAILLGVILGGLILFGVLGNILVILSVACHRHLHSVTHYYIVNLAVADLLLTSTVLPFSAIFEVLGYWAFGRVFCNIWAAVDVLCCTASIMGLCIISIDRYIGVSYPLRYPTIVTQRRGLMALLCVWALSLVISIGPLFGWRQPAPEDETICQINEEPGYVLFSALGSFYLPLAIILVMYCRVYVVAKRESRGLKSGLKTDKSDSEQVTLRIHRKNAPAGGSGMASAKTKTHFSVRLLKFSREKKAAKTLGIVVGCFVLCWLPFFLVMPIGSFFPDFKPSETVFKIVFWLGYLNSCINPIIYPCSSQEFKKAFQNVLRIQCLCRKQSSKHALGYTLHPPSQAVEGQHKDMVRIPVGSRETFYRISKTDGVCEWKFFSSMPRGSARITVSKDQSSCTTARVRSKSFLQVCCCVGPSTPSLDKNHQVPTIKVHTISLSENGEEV

[3] = target: Histamine H3 receptor (Homo sapiens, UniProt Q9Y5N1)
[4] = target: 5-hydroxytryptamine receptor 2A (Homo sapiens, UniProt P28223); type: functional, cell-based
[5] = target: T3, Amine oxidase [flavin-containing] A (Homo sapiens, UniProt P21397); type: functional
T3 sequence (P21397 whole entry): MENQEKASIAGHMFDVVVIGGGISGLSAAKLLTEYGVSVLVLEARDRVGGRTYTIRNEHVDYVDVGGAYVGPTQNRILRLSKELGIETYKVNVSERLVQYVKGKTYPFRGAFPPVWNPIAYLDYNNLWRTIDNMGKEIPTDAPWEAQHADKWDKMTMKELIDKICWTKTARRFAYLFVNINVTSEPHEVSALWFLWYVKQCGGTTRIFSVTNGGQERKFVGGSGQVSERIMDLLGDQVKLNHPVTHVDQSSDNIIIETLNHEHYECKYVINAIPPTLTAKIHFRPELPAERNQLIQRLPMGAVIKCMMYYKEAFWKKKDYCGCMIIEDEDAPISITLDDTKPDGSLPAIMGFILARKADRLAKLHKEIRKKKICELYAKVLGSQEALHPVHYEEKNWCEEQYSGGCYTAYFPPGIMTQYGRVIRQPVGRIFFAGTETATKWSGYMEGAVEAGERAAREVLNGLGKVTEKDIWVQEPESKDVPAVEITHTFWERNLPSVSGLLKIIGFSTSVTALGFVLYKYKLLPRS

[6] = target: T4, Neuropeptide Y receptor type 1 (Homo sapiens, UniProt P25929)
T4 sequence (P25929 whole entry): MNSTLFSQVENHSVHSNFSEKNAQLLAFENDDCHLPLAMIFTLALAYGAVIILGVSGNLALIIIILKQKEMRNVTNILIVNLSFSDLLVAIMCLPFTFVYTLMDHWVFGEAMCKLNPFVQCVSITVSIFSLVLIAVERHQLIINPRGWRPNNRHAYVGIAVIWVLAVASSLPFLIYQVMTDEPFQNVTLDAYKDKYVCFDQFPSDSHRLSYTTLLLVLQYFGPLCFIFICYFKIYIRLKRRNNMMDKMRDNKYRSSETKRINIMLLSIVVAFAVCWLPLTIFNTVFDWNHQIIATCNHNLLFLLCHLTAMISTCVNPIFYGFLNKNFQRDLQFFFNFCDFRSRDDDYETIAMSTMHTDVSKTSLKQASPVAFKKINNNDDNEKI

[7] = target: Kappa-type opioid receptor (Homo sapiens, UniProt P41145)
[8] = target: cGMP-inhibited 3',5'-cyclic phosphodiesterase 3A (Homo sapiens, UniProt Q14432); type: functional
[9] = target: Sodium-dependent serotonin transporter (Homo sapiens, UniProt P31645)
Further: assay procedure not described here.

Sequence of cGMP-inhibited 3',5'-cyclic phosphodiesterase 3A (Q14432 whole entry): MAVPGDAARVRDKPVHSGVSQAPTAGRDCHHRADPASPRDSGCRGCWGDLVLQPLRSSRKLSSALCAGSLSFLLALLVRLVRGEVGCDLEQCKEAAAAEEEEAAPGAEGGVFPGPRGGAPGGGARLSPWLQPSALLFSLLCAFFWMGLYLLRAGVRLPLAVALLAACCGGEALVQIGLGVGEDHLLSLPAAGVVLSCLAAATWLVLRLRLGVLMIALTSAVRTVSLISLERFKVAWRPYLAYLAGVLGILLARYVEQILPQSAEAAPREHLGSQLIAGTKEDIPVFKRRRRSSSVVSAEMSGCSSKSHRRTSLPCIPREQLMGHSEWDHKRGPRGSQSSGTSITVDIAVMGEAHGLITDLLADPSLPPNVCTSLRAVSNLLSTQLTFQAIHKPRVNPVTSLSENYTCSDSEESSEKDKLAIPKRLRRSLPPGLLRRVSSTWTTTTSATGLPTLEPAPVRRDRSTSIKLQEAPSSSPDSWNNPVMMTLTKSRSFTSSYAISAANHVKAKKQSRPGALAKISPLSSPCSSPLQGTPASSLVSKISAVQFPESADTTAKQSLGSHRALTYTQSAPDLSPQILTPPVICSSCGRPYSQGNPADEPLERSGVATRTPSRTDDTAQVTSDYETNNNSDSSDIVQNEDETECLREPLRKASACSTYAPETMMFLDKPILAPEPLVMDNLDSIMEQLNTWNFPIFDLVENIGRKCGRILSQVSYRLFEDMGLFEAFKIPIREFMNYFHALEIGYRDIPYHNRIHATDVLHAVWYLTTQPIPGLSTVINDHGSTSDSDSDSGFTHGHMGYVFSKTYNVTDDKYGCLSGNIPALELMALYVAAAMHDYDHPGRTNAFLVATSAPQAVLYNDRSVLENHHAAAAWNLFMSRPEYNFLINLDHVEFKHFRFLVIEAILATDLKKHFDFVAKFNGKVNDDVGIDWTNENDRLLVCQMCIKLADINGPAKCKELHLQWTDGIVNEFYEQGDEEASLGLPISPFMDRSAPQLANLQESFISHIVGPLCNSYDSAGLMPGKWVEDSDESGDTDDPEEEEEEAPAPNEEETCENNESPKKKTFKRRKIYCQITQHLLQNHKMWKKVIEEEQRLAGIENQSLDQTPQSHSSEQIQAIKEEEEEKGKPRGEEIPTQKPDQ
Sequence of Histamine H3 receptor (Q9Y5N1 whole entry): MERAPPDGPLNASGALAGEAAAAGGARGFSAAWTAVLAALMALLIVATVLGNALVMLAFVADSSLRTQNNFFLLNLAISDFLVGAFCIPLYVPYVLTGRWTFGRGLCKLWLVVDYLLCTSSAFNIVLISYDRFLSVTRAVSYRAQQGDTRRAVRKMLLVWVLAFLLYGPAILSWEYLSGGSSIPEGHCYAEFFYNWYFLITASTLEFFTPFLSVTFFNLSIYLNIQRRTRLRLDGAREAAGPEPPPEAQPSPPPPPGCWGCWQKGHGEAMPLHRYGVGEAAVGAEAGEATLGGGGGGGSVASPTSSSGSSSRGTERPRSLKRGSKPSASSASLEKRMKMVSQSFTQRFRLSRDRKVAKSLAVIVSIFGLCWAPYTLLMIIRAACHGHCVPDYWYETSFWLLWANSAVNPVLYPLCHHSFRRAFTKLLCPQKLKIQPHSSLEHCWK
Sequence of Sodium-dependent serotonin transporter (P31645 whole entry): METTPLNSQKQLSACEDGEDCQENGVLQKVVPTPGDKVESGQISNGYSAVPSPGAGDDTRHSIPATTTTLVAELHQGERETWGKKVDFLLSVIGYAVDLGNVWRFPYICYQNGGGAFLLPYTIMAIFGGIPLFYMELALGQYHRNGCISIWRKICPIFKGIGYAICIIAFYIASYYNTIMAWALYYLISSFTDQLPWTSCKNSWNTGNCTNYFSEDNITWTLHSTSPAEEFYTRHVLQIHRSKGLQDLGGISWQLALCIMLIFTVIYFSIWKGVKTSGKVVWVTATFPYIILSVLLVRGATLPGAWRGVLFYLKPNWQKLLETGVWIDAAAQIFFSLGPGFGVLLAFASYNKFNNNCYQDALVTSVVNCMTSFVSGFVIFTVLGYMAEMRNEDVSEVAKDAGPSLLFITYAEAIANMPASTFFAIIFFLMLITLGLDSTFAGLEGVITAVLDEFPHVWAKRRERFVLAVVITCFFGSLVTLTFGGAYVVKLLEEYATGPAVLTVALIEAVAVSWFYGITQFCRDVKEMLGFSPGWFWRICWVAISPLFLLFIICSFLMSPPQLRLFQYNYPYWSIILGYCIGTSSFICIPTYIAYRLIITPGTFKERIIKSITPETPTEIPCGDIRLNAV
Sequence of 5-hydroxytryptamine receptor 2A (P28223 whole entry): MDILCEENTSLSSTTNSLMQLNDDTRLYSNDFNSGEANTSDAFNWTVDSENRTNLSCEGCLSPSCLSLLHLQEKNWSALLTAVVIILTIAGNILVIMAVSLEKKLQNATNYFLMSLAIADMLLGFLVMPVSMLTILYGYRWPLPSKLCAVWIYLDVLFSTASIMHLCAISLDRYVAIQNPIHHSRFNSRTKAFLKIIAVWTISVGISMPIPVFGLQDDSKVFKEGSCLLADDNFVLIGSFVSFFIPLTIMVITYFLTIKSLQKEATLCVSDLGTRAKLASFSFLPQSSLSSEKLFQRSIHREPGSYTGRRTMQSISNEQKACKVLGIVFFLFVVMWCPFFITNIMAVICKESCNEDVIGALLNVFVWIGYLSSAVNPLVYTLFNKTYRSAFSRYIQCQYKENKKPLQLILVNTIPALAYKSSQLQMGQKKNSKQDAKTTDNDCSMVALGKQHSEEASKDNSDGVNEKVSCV
Sequence of Kappa-type opioid receptor (P41145 whole entry): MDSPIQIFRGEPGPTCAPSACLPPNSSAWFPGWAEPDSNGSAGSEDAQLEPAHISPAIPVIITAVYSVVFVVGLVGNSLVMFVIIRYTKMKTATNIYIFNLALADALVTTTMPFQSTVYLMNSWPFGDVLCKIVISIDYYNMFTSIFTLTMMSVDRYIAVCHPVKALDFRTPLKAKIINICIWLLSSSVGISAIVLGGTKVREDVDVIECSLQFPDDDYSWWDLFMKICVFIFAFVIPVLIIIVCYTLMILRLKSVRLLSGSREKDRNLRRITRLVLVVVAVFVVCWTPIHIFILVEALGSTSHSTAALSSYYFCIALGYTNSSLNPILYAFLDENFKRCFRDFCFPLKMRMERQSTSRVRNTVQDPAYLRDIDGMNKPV

| SMILES | AC50 [1] | AC50 [2] | AC50 [3] | AC50 [4] | AC50 [5] | AC50 [6] | AC50 [7] | AC50 [8] | AC50 [9] |
| --- | --- | --- | --- | --- | --- | --- | --- | --- | --- |
| C=CCc1ccccc1OCC(O)CNC(C)C (stereo unspecified) [ALPRENOLOL] | > 0.3 µM | > 0.3 µM | > 0.3 µM | > 30 µM | > 0.3 µM | > 30 µM | > 30 µM | > 0.3 µM | 11.5 µM |
| COCc1c(C(C)C)nc(C(C)C)c(/C=C/[C@@H](O)C[C@@H](O)CC(=O)O)c1-c1ccc(F)cc1 [CERIVASTATIN] | > 30 µM | 25.2 µM | > 30 µM |  | > 30 µM |  |  | > 30 µM |  |
| CCC1=C(C)CN(C(=O)NCCc2ccc(S(=O)(=O)NC(=O)N[C@H]3CC[C@H](C)CC3)cc2)C1=O [GLIMEPIRIDE] | > 30 µM | > 30 µM | > 30 µM |  | > 30 µM |  |  | > 30 µM |  |
| CC(C)(C)NC[C@H](O)COc1ccccc1C1CCCC1 [PENBUTOLOL] | > 30 µM | 2.54 µM | > 30 µM |  | > 30 µM |  |  | > 30 µM |  |
| CC[N+]1(C)[C@@H]2CC(OC(=O)[C@H](CO)c3ccccc3)C[C@H]1[C@@H]1O[C@@H]12 (stereo partly specified) [OXITROPIUM] | > 30 µM | > 30 µM | > 30 µM |  | > 30 µM |  |  | > 30 µM |  |
| C[C@]12CC[C@@H]3c4ccc(O)cc4CC[C@H]3[C@@H]1C[C@@H](O)[C@@H]2O [ESTRIOL] | > 30 µM | > 30 µM | > 30 µM |  | > 30 µM |  |  | > 30 µM |  |
| CN(C)[C@@H](c1cccc(O)c1)[C@H]1CCCC[C@H]1O [CIRAMADOL] | > 30 µM | > 30 µM | > 30 µM |  | > 30 µM |  |  | > 30 µM |  |
| O=C(OCC(O)CO)c1ccccc1Nc1ccnc2cc(Cl)ccc12 (stereo unspecified) [GLAFENINE] | 1.4 µM | 13.5 µM | > 30 µM | > 30 µM | > 30 µM |  |  | > 30 µM | > 30 µM |
| CC(C)Nc1ncccn1 [ISAXONINE] | > 30 µM | > 30 µM | > 30 µM |  | > 30 µM |  |  | > 30 µM |  |
| O=C(O)c1cc(O)ccc1O [GENTISIC ACID] | > 30 µM | > 30 µM | > 30 µM |  | > 30 µM |  |  | > 30 µM |  |
| OCCN1C[C@H](O)[C@@H](O)[C@H](O)[C@H]1CO [MIGLITOL] | > 30 µM | > 30 µM | > 30 µM |  | > 30 µM |  |  | > 30 µM |  |
| O=C(CCNNC(=O)c1ccncc1)NCc1ccccc1 [NIALAMIDE] | > 30 µM | > 30 µM | > 30 µM |  | > 30 µM |  |  | > 30 µM |  |
| N[C@@H](C(=O)N[C@@H]1C(=O)N2C(C(=O)O)=C(Cl)CC[C@H]12)c1ccccc1 [LORACARBEF ANHYDROUS] | > 30 µM | > 30 µM | > 30 µM |  | > 30 µM |  |  | > 30 µM |  |
